Measurements taken from patent US7815905B2, “Methods of increasing insulin sensitivity or decreasing insulin secretion by administering corticotropin releasing factor receptor-2 inhibitors” (Research Development Foundation, priority 2006, dated 2010).
“Also recorded” adds a separate entry of the source.

Columns and labels:
[1] = test system: wild type mice; assay: Glucose tolerance test (GTT) in wild type mice; type: in vivo, mouse; details: fasted male wild type mice; 30 μg/kg IP 20 min prior to glucose 2 g/kg
Description: FIG. 1a-f: Metabolic phenotype of Ucn 2 null mice. […] The ability of the Ucn 2 null mice and wild type littermates to handle a glucose load was assessed using a standard glucose tolerance test (see example 1). Fasted male mice were injected intraperitoneally (IP) with glucose (2 g/kg body weight) and blood glucose levels were measured before and at 15, 30, 60, 90 and 120 min following glucose injection. […] Fasted male Ucn 2 null mice were injected IP with saline or with 0.1 μg/kg body weight Ucn 2, 20 min prior to glucose injection (2 g/kg body weight) and blood glucose levels were measured before and at 15, 30, 60 and 90 min following glucose injection. […] Fasted male wild type mice were injected IP with saline or with astressin2B (30 μg/kg body weight), 20 min prior to glucose injection (2 g/kg body weight), and blood glucose levels were measured before and at 15, 30, 60 and 90 min following glucose injection. (d) The enhanced glucose tolerance in the Ucn 2 null mice is not due to increased insulin secretion. Fasted male mice were injected with glucose (3 g/kg body weight, IP) and blood samples were collected at 2, 5, 15 and 30 min following glucose injection and insulin was measured by radioimmunoassay. […] Fasted male mice were injected with insulin (0.75 U/kg body weight, IP) and blood glucose levels were measured before and at 15, 30, 60 and 90 min following insulin injection. […]

[2] = test system: isolated rat islets; assay: Insulin secretion from isolated rat islets; type: cell-based; details: isolated rat islets; for insulin secretion induced by 16.8 mM glucose: pretreated
Description: FIG. 4a-b: The effect of CRFR2 antagonist on insulin secretion in isolated rat islets. (a) The effect of astressin2B (Ast2-B) on insulin secretion in response to glucose in isolated rat islets. […] The asterisk indicates a statistically significant difference between results from the control versus Ast2-B. (b) Isolated rat isles were pre-treated with anti-Ucn 3 IgG or control IgG followed by addition of indicated concentration of glucose. Y-axis indicates insulin secretion from the treated islets. The double asterisks indicate a statistically significant difference between the indicated treatments. […]
To assess the effect of CRFR2 antagonism on islet cell function secretion of insulin from isolated rat islets was studied. […] Thus, activation of CRFR2 by endogenous ligands is involved in insulin secretion induced by high levels of glucose.
In order to determine the role of Ucn 3 in glucose induced insulin secretion, isolated rat islets were pretreated with an anti-Ucn 3 IgG prior to glucose treatment.

[3] = test system: male rats; assay: Glucose induced insulin release in vivo in male rats; set-up: species or system rat
Description: FIG. 9a-c: The effects of CRFR2 signaling on insulin secretion. […] Plasma insulin (b) and glucose (c) levels in male rats treated with vehicle or Ast2-B (0.09-9 nmol/kg). *, P<0.05 vs. vehicle.
In order to determine whether blocking of CRFR2 function also modulates glucose induced insulin release in vivo, various doses of Ast2-B (0.09-9 nmol/kg) or vehicle were injected intravenously into male rats through a jugular vein cannula 20 min before injection of a glucose (2.8 mmol/kg) bolus.

[4] = test system: isolated rat islets; assay: Insulin secretion from isolated rat islets; type: cell-based; details: exendin-4 10 nM + 8.4 mM glucose; listed as Ast2-B
[5] = Rivier et al., 2003; cited from earlier work
[6] = molecular target: T1, CRFR2 (Homo sapiens, UniProt Q13324); details: Rivier et al. 2002; cited from earlier work
T1 sequence (Q13324 1-411): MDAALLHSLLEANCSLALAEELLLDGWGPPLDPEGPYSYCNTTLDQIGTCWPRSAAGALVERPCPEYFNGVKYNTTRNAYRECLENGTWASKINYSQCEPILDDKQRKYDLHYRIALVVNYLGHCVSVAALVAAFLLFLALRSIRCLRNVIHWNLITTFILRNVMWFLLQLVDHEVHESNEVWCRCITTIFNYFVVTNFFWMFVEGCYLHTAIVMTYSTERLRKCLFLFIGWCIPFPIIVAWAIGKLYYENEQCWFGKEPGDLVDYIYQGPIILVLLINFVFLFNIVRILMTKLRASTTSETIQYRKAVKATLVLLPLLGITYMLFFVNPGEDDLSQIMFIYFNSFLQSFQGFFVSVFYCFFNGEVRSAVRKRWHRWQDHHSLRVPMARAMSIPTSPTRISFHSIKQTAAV

With “astressin2B: CRFR2 selective antagonist; modified sauvagine polypeptide (SEQ ID NO:10), Rivier et al., 2002” the “glucose tolerance test profile” value [1] was “has CRFR2 antagonist activity; also recorded: mirrors that of Ucn 2 null mice; also recorded: mimics the Ucn 2 mutant mice glucose tolerance test profile”, the “insulin secretion induced by 16.8 mM glucose” value [2] was “has CRFR2 antagonist activity” and the “insulin secretion induced by 16.8 mM glucose” value ([2]; listed as Ast2-B) was “significantly attenuated; also recorded: attenuated by Ast2-B in a dose-dependent manner”. For the same substance, the “insulin secretion induced by 16.8 mM glucose” value ([2]; listed as astressin-2B) was “attenuates 16.8 mM glucose-induced insulin secretion in a dose-dependent manner”, the “insulin release induced by 2.8 mM glucose” value ([2]; 2.8 mM glucose) was “did not affect” and the “insulin secretion induced by 8.4 mM glucose” value [2] was “did not significantly modify”. The “insulin secretion induced by 8.4 mM glucose” value ([2]; listed as Ast2-B) was “did not affect”, the “insulin release induced by 10 mM glucose” value ([2]; 10 mM glucose) was “did not affect” and the “glucose-induced insulin secretion, highest dose compared to 0.9 nmol/kg” value ([3]; 9 nmol/kg intravenously) was “slightly less effective”. The plasma glucose levels ([3]; 0.09-9 nmol/kg intravenously 20 min before glucose 2.8 mmol/kg bolus) was “mirrored the results of insulin”, the “glucose-induced insulin secretion (plasma insulin)” value ([3]; 0.09-9 nmol/kg intravenously 20 min before glucose 2.8 mmol/kg bolus, listed as Ast2-B) was “attenuated glucose-induced insulin secretion in a dose dependent manner; also recorded: attenuates glucose induced insulin secretion” and the “Exendin-4 stimulated insulin release” value [4] was “greatly attenuated; also recorded: the effect was attenuated”. For the same substance, the “crossing of the blood brain barrier” value [5] was “unlikely to cross the blood brain barrier” and the “time of administration needed for CRFR2 antagonist activity” value [6] was “active when administered concurrently with the CRFR2 agonist”.
